In one experiment the test system is Candida albicans. The experiment is described as follows: microbe, parasite or virus in culture. The following applies: ATCC 90028, ASSAY_TEST Inhibition of Fungal Growth, detection method Absorption (OD530), plate type 384well, NBS, CORNING #3640.
Experiment [1] deals with Pseudomonas aeruginosa. The experiment can be described thus: microbe, parasite or virus in culture. The following applies: ATCC 27853, 18 h, ASSAY_TEST Inhibition of Bacterial Growth, detection method Absorption (OD600), MEDIA CAMHB, plate type 384well, NBS, CORNING #3640.
Description: Antibacterial activity against Pseudomonas aeruginosa ATCC 27853 (CO-ADD:GN_042); MIC in CAMBH media using NBS plates, by OD(600)
In a further experiment the test system is Acinetobacter baumannii. The experiment is described as follows: microbe, parasite or virus in culture. The conditions noted are these: ATCC 19606, 18 h, ASSAY_TEST Inhibition of Bacterial Growth, detection method Absorption (OD600), MEDIA CAMHB, plate type 384well, NBS, CORNING #3640.
Another experiment deals with Staphylococcus aureus. The experiment is described as follows: microbe, parasite or virus in culture. The conditions noted are these: ATCC 43300, 18 h, ASSAY_TEST Inhibition of Bacterial Growth, detection method Absorption (OD600), MEDIA CAMHB, plate type 384well, NBS, CORNING #3640.
Experiment [2] has as its system Pseudomonas aeruginosa. The experiment can be described thus: Antibacterial activity against Pseudomonas aeruginosa PAO397 [PAO1 d(mexAB-oprM) d(mexCD-oprJ) d(mexEF-oprN) d(mexJKL) d(mexXY) d(opmH)] (CO-ADD:GN_211); MIC in CAMBH media using NBS plates, by OD(600). The following applies: ASSAY_TEST Inhibition of Bacterial Growth, detection method Absorption (OD600), MEDIA CAMHB, plate type 384well, CORNING #3640, time 18 hr. The class given is functional.

Another experiment concerns Escherichia coli. The experiment can be described thus: microbe, parasite or virus in culture. The following applies: ATCC 25922, 18 h, ASSAY_TEST Inhibition of Bacterial Growth, detection method Absorption (OD600), MEDIA CAMHB, plate type 384well, NBS, CORNING #3640.
For a further experiment, the system named is HEK293. The experiment is described as follows: cells. The following applies: Homo sapiens, ATCC CRL1573, HEK293; ASSAY_TEST Inhibition of Cell Viability; detection method Resazurin; Fluorescence (ex560/em590); MEDIA DMEM with 10% FBS; plate type 384well; TC; CORNING #3712; time 18 hr; read-out: CC50. Type of experiment: functional, Homo sapiens, ATCC CRL1573. (In general: Resazurin is reduced to fluorescent resorufin, in cell work by metabolically active cells.)

A further experiment concerns Klebsiella pneumoniae. The experiment is described as follows: microbe, parasite or virus in culture. The conditions noted are these: ATCC 700603, 18 h, ASSAY_TEST Inhibition of Bacterial Growth, detection method Absorption (OD600), MEDIA CAMHB, plate type 384well, NBS, CORNING #3640.

The structures appear in SMILES notation. Converted amounts (≈) assume the structure as drawn. Counter-ions that a name gives are not always drawn.

This passage reports MIC and CC50 results from ChEMBL document CHEMBL4513161, “CO-ADD screening of MMV (CH) - Pandemic Response Box” (2021).

Description for Acinetobacter baumannii: Antibacterial activity against Acinetobacter baumannii ATCC 19606 (CO-ADD:GN_034); MIC in CAMBH media using NBS plates, by OD600
Description for Candida albicans: Antifungal activity against Candida albicans ATCC 90028 (CO-ADD:FG_001); MIC in YNB media using NBS plates, by OD630
Description for Cryptococcus neoformans: Antifungal activity against Cryptococcus neoformans H99 ATCC 208821 (CO-ADD:FG_002); MIC in YNB media using NBS plates, by Resazurin OD(600-570)
Description for Escherichia coli: Antibacterial activity against Escherichia coli ATCC 25922 (CO-ADD:GN_001); MIC in CAMBH media using NBS plates, by OD(600)
Description for Klebsiella pneumoniae: Antibacterial activity against Klebsiella pneumoniae MDR ATCC 70063 (CO-ADD:GN_003); MIC in CAMBH media using NBS plates, by OD(600)
Description for Staphylococcus aureus: Antibacterial activity against Staphylococcus aureus MRSA ATCC 43300 (CO-ADD:GP_020); MIC in CAMBH media, using NBS plates, by OD(600)

Consider `O=C(/C(=C/c1ccc(Cl)cc1Cl)n1ccnc1)c1ccc(Cl)cc1`, for which the MIC is 10 µM (≈ 3.78 µg/mL) with Candida albicans; 20 µM (≈ 7.55 µg/mL) against Cryptococcus neoformans; over 20 µM with Pseudomonas aeruginosa [1]; over 20 µM against Acinetobacter baumannii; 20 µM (≈ 7.55 µg/mL) against Staphylococcus aureus; over 20 µM with Pseudomonas aeruginosa [2]. The MIC in the experiment on Escherichia coli and with Klebsiella pneumoniae was over 20 µM in each case. Moreover, the cytotoxic concentration (CC50) in the experiment on HEK293 was found to be 5.19 µM.
Take `O=C(O)C[C@H]1CC[C@H](c2ccc(-c3ccc(Nc4ccc(C(F)(F)F)nc4)cn3)cc2)CC1`: the MIC with Candida albicans, against Cryptococcus neoformans, against Pseudomonas aeruginosa [1], against Acinetobacter baumannii, against Staphylococcus aureus and in the experiment with Pseudomonas aeruginosa [2] was over 20 µM each time. The MIC against Escherichia coli and in the experiment with Klebsiella pneumoniae was over 20 µM in each case. The CC50 with HEK293 is over 20 µM.
As for `Cc1ncc([N+](=O)[O-])n1CC(O)CN1CCOCC1` (stereo unspecified) [MORINIDAZOLE], the MIC in the experiment on Candida albicans, with Cryptococcus neoformans, in the experiment with Pseudomonas aeruginosa [1], against Acinetobacter baumannii, in the experiment with Staphylococcus aureus and with Pseudomonas aeruginosa [2] was over 20 µM in each case. For the same compound, the MIC in the experiment with Escherichia coli and in the experiment on Klebsiella pneumoniae was over 20 µM in each case. Moreover, in the experiment with HEK293, the CC50 is over 20 µM.
Regarding `O=C(O)c1ccc(-n2nc(-c3ccccc3O)nc2-c2ccccc2O)cc1` [DEFERASIROX], the MIC with Candida albicans, with Cryptococcus neoformans, against Pseudomonas aeruginosa [1], against Acinetobacter baumannii, in the experiment on Staphylococcus aureus and against Pseudomonas aeruginosa [2] was over 20 µM each time. In addition, the MIC with Escherichia coli and against Klebsiella pneumoniae was over 20 µM each time. The CC50 in the experiment with HEK293 is over 20 µM.
Consider `CCCCc1ccc(-c2nc(C)c(C(=O)OC)s2)cc1`, for which the MIC against Candida albicans, in the experiment on Cryptococcus neoformans, against Pseudomonas aeruginosa [1], in the experiment with Acinetobacter baumannii, against Staphylococcus aureus and in the experiment on Pseudomonas aeruginosa [2] was over 20 µM in each case. The MIC against Escherichia coli and in the experiment on Klebsiella pneumoniae was over 20 µM throughout. In the experiment with HEK293, the CC50 was over 20 µM.
Turning to `Cc1[nH]c2ccccc2c1CC(=O)N[C@@H](Cc1ccccc1)C(=O)N(C)c1ccccc1`, the MIC against Candida albicans, in the experiment on Cryptococcus neoformans, with Pseudomonas aeruginosa [1], against Acinetobacter baumannii, with Staphylococcus aureus and in the experiment with Pseudomonas aeruginosa [2] was over 20 µM throughout. In addition, the MIC with Escherichia coli and in the experiment with Klebsiella pneumoniae was over 20 µM in each case. Besides, the CC50 in the experiment with HEK293 is over 20 µM.
As for `NC1(C(=O)O)CCP(=O)(O)CC1` (stereo unspecified), the MIC with Candida albicans, in the experiment with Cryptococcus neoformans, with Pseudomonas aeruginosa [1], in the experiment with Acinetobacter baumannii, with Staphylococcus aureus and in the experiment with Pseudomonas aeruginosa [2] was over 20 µM each time. Further, the MIC in the experiment on Escherichia coli and in the experiment with Klebsiella pneumoniae was over 20 µM throughout. For the same compound, the CC50 in the experiment with HEK293 is over 20 µM.
With `O=S(=O)(Nc1ccccc1)c1ccc(NC(=S)Nc2ccccc2)cc1`, the MIC against Candida albicans, against Cryptococcus neoformans, in the experiment with Pseudomonas aeruginosa [1], against Acinetobacter baumannii, in the experiment with Staphylococcus aureus and against Pseudomonas aeruginosa [2] was over 20 µM in each case. Also, the MIC against Escherichia coli and against Klebsiella pneumoniae was over 20 µM throughout. Besides, the CC50 with HEK293 is over 20 µM.
Turning to `CC(C)(C)NC(=O)N[C@H](C(=O)N1C[C@H]2[C@@H]([C@H]1C(=O)NC(CC1CCC1)C(=O)C(N)=O)C2(C)C)C(C)(C)C` (stereo partly specified) [BOCEPREVIR], the MIC in the experiment with Candida albicans, in the experiment with Cryptococcus neoformans, against Pseudomonas aeruginosa [1], with Acinetobacter baumannii, in the experiment with Staphylococcus aureus and against Pseudomonas aeruginosa [2] was over 20 µM each time. Besides, the MIC in the experiment with Escherichia coli and in the experiment on Klebsiella pneumoniae was over 20 µM in each case. Besides, the CC50 in the experiment with HEK293 was over 20 µM.
Take `CCOC(=O)N1CCN(c2ccc(Cl)cc2)CC1`: the MIC against Candida albicans, in the experiment on Cryptococcus neoformans, against Pseudomonas aeruginosa [1], against Acinetobacter baumannii, against Staphylococcus aureus and against Pseudomonas aeruginosa [2] was over 20 µM in each case. For the same compound, the MIC in the experiment with Escherichia coli and in the experiment on Klebsiella pneumoniae was over 20 µM in each case. Also, the CC50 in the experiment with HEK293 is over 20 µM.
As for `Cc1c[nH]c(=O)nc1NCc1ccccc1`, the MIC with Candida albicans, with Cryptococcus neoformans, against Pseudomonas aeruginosa [1], in the experiment on Acinetobacter baumannii, with Staphylococcus aureus and against Pseudomonas aeruginosa [2] was over 20 µM in each case. Moreover, the MIC in the experiment with Escherichia coli and with Klebsiella pneumoniae was over 20 µM throughout. Moreover, the CC50 in the experiment on HEK293 was over 20 µM.
As for `CC1(C)Cc2c(C#N)c(SCCc3ccccc3)nc(N3CCOCC3)c2CO1`, the MIC against Candida albicans, against Cryptococcus neoformans, in the experiment with Pseudomonas aeruginosa [1], against Acinetobacter baumannii, in the experiment with Staphylococcus aureus and against Pseudomonas aeruginosa [2] was over 20 µM throughout. In addition, the MIC in the experiment with Escherichia coli and against Klebsiella pneumoniae was over 20 µM throughout. In addition, the CC50 with HEK293 was over 20 µM.
For the compound `CC(C)(C)c1cc(C(=O)/C(C#N)=N/Nc2cccc(Cl)c2)no1`, the MIC with Candida albicans, in the experiment with Cryptococcus neoformans, against Pseudomonas aeruginosa [1], against Acinetobacter baumannii, with Staphylococcus aureus and against Pseudomonas aeruginosa [2] was over 20 µM in each case. The MIC against Escherichia coli and against Klebsiella pneumoniae was over 20 µM each time. The CC50 in the experiment on HEK293 was over 20 µM.
Consider `O=C1CCC(N2C(=O)c3ccccc3C2=O)C(=O)N1` (stereo unspecified) [THALIDOMIDE], for which the MIC in the experiment on Candida albicans, against Cryptococcus neoformans, in the experiment on Pseudomonas aeruginosa [1], in the experiment on Acinetobacter baumannii, against Staphylococcus aureus and in the experiment on Pseudomonas aeruginosa [2] was over 20 µM in each case. The MIC with Escherichia coli and against Klebsiella pneumoniae was over 20 µM throughout. For the same compound, the CC50 in the experiment with HEK293 was over 20 µM.
`CCC[C@@H]1C[C@@H](C(=O)N[C@@H]([C@H]2O[C@H](SC)[C@H](O)[C@@H](O)[C@H]2O)[C@H](C)Cl)N(C)C1` [CLINDAMYCIN HYDROCHLORIDE]: the MIC was over 20 µM against Candida albicans; over 20 µM against Cryptococcus neoformans; over 20 µM in the experiment on Pseudomonas aeruginosa [1]; over 20 µM against Acinetobacter baumannii; over 20 µM against Staphylococcus aureus; 20 µM in the experiment on Pseudomonas aeruginosa [2]. In addition, the MIC in the experiment with Escherichia coli and against Klebsiella pneumoniae was over 20 µM in each case. Further, the CC50 with HEK293 is over 20 µM.
For the compound `O=C(Nc1ccc(-c2ccccc2)cc1)C1=C(O)C(Cc2ccccc2)OC1=O` (stereo unspecified), the MIC in the experiment with Candida albicans, in the experiment on Cryptococcus neoformans, with Pseudomonas aeruginosa [1], against Acinetobacter baumannii, with Staphylococcus aureus and against Pseudomonas aeruginosa [2] was over 20 µM each time. Further, the MIC with Escherichia coli and against Klebsiella pneumoniae was over 20 µM throughout. Further, the half-maximal cytotoxic concentration (CC50) with HEK293 is over 20 µM.
`CCNC(=O)Nc1cc2c(-c3ccnc(C)c3)ccc(CNC(=O)OC)c2cn1`: the MIC in the experiment with Candida albicans was over 20 µM; against Cryptococcus neoformans, over 20 µM; in the experiment on Pseudomonas aeruginosa [1] it was over 20 µM; against Acinetobacter baumannii, over 20 µM; against Staphylococcus aureus, 0.312 µM (≈ 0.123 µg/mL); with Pseudomonas aeruginosa [2] it was 2.5 µM (≈ 0.984 µg/mL). For the same compound, the MIC against Escherichia coli and against Klebsiella pneumoniae was over 20 µM each time. In the experiment on HEK293, the cytotoxic concentration (CC50) was over 20 µM.
Consider `CCc1cc(CCCOc2c(C)cc(-c3noc(C(F)(F)F)n3)cc2C)on1`, for which the MIC against Candida albicans, against Cryptococcus neoformans, in the experiment on Pseudomonas aeruginosa [1], with Acinetobacter baumannii, with Staphylococcus aureus and in the experiment with Pseudomonas aeruginosa [2] was over 20 µM each time. For the same compound, the MIC in the experiment with Escherichia coli and in the experiment on Klebsiella pneumoniae was over 20 µM in each case. In addition, the CC50 in the experiment with HEK293 is over 20 µM.
Turning to `CC[C@H]1OC(=O)[C@H](C)[C@@H](O[C@H]2C[C@@](C)(OC)[C@@H](O)[C@H](C)O2)[C@H](C)[C@@H](O[C@@H]2O[C@H](C)C[C@H](N(C)C)[C@H]2O)[C@](C)(O)C[C@@H](C)C(=O)[C@H](C)[C@@H](O)[C@]1(C)O` [ERYTHROMYCIN], the MIC against Candida albicans was over 20 µM; in the experiment on Cryptococcus neoformans, over 20 µM; in the experiment with Pseudomonas aeruginosa [1], 20 µM (≈ 14.7 µg/mL); against Acinetobacter baumannii, over 20 µM; against Staphylococcus aureus, over 20 µM; against Pseudomonas aeruginosa [2] it was 20 µM (≈ 14.7 µg/mL). For the same compound, the MIC against Escherichia coli and in the experiment with Klebsiella pneumoniae was over 20 µM each time. In addition, in the experiment on HEK293, the CC50 was over 20 µM.

In general, CC50 refers to the concentration at which the toxic effect on the cells reaches its halfway point.
